Assay results: US20240051985A1, “METTL3 MODULATORS” (ACCENT THERAPEUTICS, INC., priority 2020, published 2024)

How the values were obtained:
[1] = target: METTL3/METTL14 (Homo sapiens, UniProt Q86U44); assay: METTL3-14 standard enzyme assay (3H-SAM flashplate); settings: METTL3 biochemical assay
Method: METTL3-14 Standard Enzyme Assay
Assays were performed in a 25 μl-volume in 384-well V-bottom polypropylene microplates (Greiner Bio-One, cat. No. 781280) at ambient temperature. Optimized 1× assay buffer was 20 mM HEPES pH 7.5, 50 mM KCl, 250 μM MgCl2, 1 mM DTT, 0.01% Tween, 0.01% BSG, 0.004 U/μl RNAseOUT (cat. No. 10777019, ThermoFisher Scientific, Waltham, MA). For compound screening METTL3/METTL14 (final concentration, f.c.=2.5 nM) was added using a Multidrop Combi (ThermoFisher Scientific, Waltham, MA) and preincubated for 5 min. Reactions were started by adding 3′ biotinylated RNA (UCUGGACUAAA-biotin) (f.c.=100 nM) and 3H-SAM (f.c.=100 nM) substrates. Reactions proceeded for 30 minutes and were quenched with excess non-radioactive SAM (f.c.=15 μM). The reactions were then transferred to streptavidin-coated flashplates and incubated for 2 hours at 25° C. Following two washing cycles with 0.1% Tween-20, the plates were sealed and read on a TopCount (PerkinElmer, Waltham, MA) plate-based scintillation counter. For determination of kinetic parameters, reaction times were optimized so that measurements were taken during the initial velocity phase of the reaction.

[2] = target: PRMT5-MEP50 (Homo sapiens, UniProt O14744); assay: PRMT5 assay (3H-SAM flashplate); settings: PRMT5 biochemical assay
Method: Assays were performed in a 25 μl-volume in 384-well V-bottom polypropylene microplates (Greiner Bio-One, cat. No. 781280) at ambient temperature. Optimized 1× assay buffer was 20 mM Tris-HCl pH 8.0, 1 mM DTT, […]. For compound screening PRMT5-MEP50 (final concentration, f.c.=2.5 nM) was added using a Multidrop Combi (ThermoFisher Scientific, Waltham, MA) and preincubated for 5 min. Reactions were started by adding 3′ biotinylated histone H4 peptide acetylated on serine 1 (Ac-[…]-Biotin) (f.c.=100 nM) and 3H-SAM (f.c.=250 nM) substrates. Reactions proceeded for 60 minutes and were quenched with excess non-radioactive SAM (f.c.=15 μM). The reactions were then transferred to streptavidin-coated flashplates and incubated for 2 hours at 25° C. Following two washing cycles with 0.1% Tween-20, the plates were sealed and read on a TopCount (PerkinElmer, Waltham, MA) plate-based scintillation counter. For determination of kinetic parameters, reaction times were optimized so that measurements were taken during the initial velocity phase of the reaction.

PRMT5-MEP50, sequence (O14744 whole entry): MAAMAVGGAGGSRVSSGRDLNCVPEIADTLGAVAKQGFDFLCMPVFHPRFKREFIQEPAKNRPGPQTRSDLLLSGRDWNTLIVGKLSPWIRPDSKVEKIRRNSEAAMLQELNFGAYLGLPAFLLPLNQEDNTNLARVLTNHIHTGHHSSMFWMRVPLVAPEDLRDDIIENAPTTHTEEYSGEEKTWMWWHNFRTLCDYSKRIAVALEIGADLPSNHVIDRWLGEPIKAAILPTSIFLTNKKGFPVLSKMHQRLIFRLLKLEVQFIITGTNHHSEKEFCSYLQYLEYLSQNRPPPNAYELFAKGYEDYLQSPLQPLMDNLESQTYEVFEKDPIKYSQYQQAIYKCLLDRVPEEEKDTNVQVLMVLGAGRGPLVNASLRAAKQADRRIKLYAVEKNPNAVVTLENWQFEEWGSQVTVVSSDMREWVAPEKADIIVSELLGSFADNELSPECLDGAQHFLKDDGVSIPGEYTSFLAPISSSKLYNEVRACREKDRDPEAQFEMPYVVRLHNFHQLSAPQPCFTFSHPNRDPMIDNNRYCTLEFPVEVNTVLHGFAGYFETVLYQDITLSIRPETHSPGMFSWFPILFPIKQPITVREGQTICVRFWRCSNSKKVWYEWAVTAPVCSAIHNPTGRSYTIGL
PRMT5-MEP50, sequence (Q9BQA1 whole entry partner): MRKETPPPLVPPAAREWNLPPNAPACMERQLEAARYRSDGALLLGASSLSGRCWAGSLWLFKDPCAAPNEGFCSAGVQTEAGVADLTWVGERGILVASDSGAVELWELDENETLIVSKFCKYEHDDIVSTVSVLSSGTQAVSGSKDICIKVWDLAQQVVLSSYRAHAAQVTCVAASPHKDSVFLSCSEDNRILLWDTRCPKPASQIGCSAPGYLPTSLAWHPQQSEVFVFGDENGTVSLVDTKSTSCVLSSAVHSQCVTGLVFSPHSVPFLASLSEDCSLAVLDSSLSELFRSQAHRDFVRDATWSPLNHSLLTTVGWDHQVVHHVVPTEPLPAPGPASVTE
METTL3/METTL14, sequence (Q86U44 whole entry, species assumed): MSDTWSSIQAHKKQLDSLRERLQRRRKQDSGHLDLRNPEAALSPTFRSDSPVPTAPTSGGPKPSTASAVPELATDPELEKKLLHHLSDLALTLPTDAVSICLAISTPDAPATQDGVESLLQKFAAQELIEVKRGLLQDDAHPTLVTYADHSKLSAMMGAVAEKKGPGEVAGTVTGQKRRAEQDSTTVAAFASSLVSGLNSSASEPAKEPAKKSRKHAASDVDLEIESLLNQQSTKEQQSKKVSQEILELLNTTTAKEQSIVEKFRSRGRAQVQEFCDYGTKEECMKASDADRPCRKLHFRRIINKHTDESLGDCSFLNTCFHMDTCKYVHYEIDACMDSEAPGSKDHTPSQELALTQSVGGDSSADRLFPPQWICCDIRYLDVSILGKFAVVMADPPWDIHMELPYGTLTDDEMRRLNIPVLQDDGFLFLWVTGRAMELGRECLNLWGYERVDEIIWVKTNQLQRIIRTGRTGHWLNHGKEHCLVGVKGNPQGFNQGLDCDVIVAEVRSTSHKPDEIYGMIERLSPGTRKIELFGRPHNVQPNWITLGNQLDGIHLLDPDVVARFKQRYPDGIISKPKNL
METTL3/METTL14, sequence (Q9HCE5 whole entry partner, species assumed): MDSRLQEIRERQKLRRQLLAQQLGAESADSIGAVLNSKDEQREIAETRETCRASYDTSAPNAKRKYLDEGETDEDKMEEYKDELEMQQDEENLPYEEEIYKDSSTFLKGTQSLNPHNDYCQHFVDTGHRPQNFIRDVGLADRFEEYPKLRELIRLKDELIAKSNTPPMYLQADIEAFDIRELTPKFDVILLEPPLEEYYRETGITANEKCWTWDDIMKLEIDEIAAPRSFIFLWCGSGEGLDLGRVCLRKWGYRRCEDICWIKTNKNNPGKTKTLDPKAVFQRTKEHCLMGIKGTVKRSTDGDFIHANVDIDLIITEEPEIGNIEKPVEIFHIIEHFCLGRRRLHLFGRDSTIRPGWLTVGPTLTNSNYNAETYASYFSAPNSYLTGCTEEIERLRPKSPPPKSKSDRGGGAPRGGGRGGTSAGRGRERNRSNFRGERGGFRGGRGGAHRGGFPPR

Compound | IC50 ([1]; Table 4) [µM] | IC50 ([2]; Table 4) [µM] | IC50 ([1]; Table 3) [µM] | IC50 ([2]; Table 3) [µM]
Cn1ccc(-c2cn([C@@H]3O[C@H](C(=O)NC4CCN(Cc5ccccc5)CC4)[C@@H](O)[C@H]3O)c3ncnc(N)c23)n1 [Compound I-201] | 0.01 to 0.1 | 0.01 to 0.1 | – | –
Cn1ccc(-c2cn([C@@H]3O[C@H](C(=O)NCC4CCOCC4)[C@@H](O)[C@H]3O)c3ncnc(N)c23)n1 [Compound I-21] | – | – | 0.1 to 1 | ≥ 1
Cn1ccc(-c2cn([C@@H]3O[C@H](C(=O)NC4CCN(c5ccccn5)CC4)[C@@H](O)[C@H]3O)c3ncnc(N)c23)n1 [Compound I-222] | 0.1 to 1 | ≥ 1 | – | –
Cn1ccc(-c2cn([C@@H]3O[C@H](C(=O)N(CC[C@H](N)C(=O)O)C4CCNCC4)[C@@H](O)[C@H]3O)c3ncnc(N)c23)n1 [Compound I-9] | – | – | 0.1 to 1 | ≥ 1
CN(C)CCCN(C(=O)[C@H]1O[C@@H](n2cc(-c3ccn(C)n3)c3c(N)ncnc32)[C@H](O)[C@@H]1O)C1CCN(C)CC1 [Compound I-51, (2S,3S,4R,5R)-5-[4-amino-5-(1-methyl-1H-pyrazol-3-yl)-7H-pyrrolo[2,3-d]pyrimidin-7-yl]-N-[3-(dimethylamino)propyl]-3,4-dihydroxy-N-(1-methylpiperidin-4-yl)oxolane-2-carboxamide] | 0.1 to 1 | 0.1 to 1 | – | –
Cn1ccc(-c2cn([C@@H]3O[C@H](C(=O)NC4CCN5CCCC5C4)[C@@H](O)[C@H]3O)c3ncnc(N)c23)n1 (stereo partly shown) [Compound I-206] | 0.1 to 1 | 0.1 to 1 | – | –
Cn1ccc(-c2cn([C@@H]3O[C@H](C(=O)NCC4CCN(CC(F)F)CC4)[C@@H](O)[C@H]3O)c3ncnc(N)c23)n1 [Compound I-23] | – | – | ≥ 1 | 0.1 to 1
COCCN(C(=O)[C@H]1O[C@@H](n2cc(-c3ccn(C)n3)c3c(N)ncnc32)[C@H](O)[C@@H]1O)C1CCNCC1 [Compound I-6] | – | – | ≥ 1 | < 0.01
CN1CCC(N(CCCC(=O)O)C(=O)[C@H]2O[C@@H](n3cc(-c4ccn(C)n4)c4c(N)ncnc43)[C@H](O)[C@@H]2O)CC1 [Compound I-58, 4-{1-[(2S,3S,4R,5R)-5-[4-amino-5-(1-methyl-1H-pyrazol-3-yl)-7H-pyrrolo[2,3-d]pyrimidin-7-yl]-3,4-dihydroxyoxolan-2-yl]-N-(1-methylpiperidin-4-yl)formamido}butanoic acid] | ≥ 1 | 0.01 to 0.1 | – | –
C[C@H]1C[C@@H](NC(=O)[C@H]2O[C@@H](n3cc(-c4ccn(C)n4)c4c(N)ncnc43)[C@H](O)[C@@H]2O)CCN1C [Compound I-232] | 0.1 to 1 | 0.1 to 1 | – | –
Cn1ccc(-c2cn([C@@H]3O[C@H](C(=O)N4CCC[C@H](C(N)=O)C4)[C@@H](O)[C@H]3O)c3ncnc(N)c23)n1 [Compound I-200] | ≥ 1 | ≥ 1 | – | –
Cn1ccc(-c2cn([C@@H]3O[C@H](C(=O)N[C@H]4C[C@H](O)C4)[C@@H](O)[C@H]3O)c3ncnc(N)c23)n1 [Compound I-215] | ≥ 1 | ≥ 1 | – | –
CCNc1ccnc(NC(=O)[C@H]2O[C@@H](n3cc(-n4cccn4)c4c(N)ncnc43)C[C@@H]2O)c1 [Compound I-29] | – | – | 0.1 to 1 | ≥ 1
Cn1ccc(-c2cn([C@@H]3O[C@H](C(=O)NC4CCC5(CC4)CNC5)[C@@H](O)[C@H]3O)c3ncnc(N)c23)n1 [Compound I-208] | 0.1 to 1 | 0.1 to 1 | – | –
CN1CCC(NC(=O)[C@H]2O[C@@H](n3cc(-c4ccn(C)n4)c4c(N)ncnc43)[C@H](O)[C@@H]2O)CC1 [Compound I-25] | – | – | 0.1 to 1 | 0.01 to 0.1
(2S,3S,4R,5R)-5-[4-amino-5-(1-methyl-1H-pyrazol-3-yl)-7H-pyrrolo[2,3-d]pyrimidin-7-yl]-3,4-dihydroxy-N-{3-[(methylcarbamoyl)amino]propyl}-N-(1-methylpiperidin-4-yl)oxolane-2-carboxamide [Compound I-50] | ≥ 1 | 0.1 to 1 | – | –
Cn1ccc(-c2cn([C@@H]3O[C@H](C(=O)NC4CCC4)[C@@H](O)[C@H]3O)c3ncnc(N)c23)n1 [Compound I-218] | 0.1 to 1 | ≥ 1 | – | –
Cn1ccc(-c2cn([C@@H]3O[C@H](C(=O)NC4CCN(C5CCC5)CC4)[C@@H](O)[C@H]3O)c3ncnc(N)c23)n1 [Compound I-224] | 0.1 to 1 | 0.1 to 1 | – | –
COCCCN(C)C(=O)[C@H]1O[C@@H](n2cc(-c3ccn(C)n3)c3c(N)ncnc32)[C@H](O)[C@@H]1O [Compound I-5] | – | – | ≥ 1 | ≥ 1

Compound | IC50 ([1]; Table 4) [µM] | IC50 ([2]; Table 4) [µM] | IC50 ([1]; Table 3) [µM] | IC50 ([2]; Table 3) [µM]
Cn1ccc(-c2cn([C@@H]3O[C@H](C(=O)NCc4ccccc4)[C@@H](O)[C@H]3O)c3ncnc(N)c23)n1 [Compound I-26] | – | – | 0.1 to 1 | ≥ 1
COCCNC(=O)[C@H]1O[C@@H](n2cc(-c3ccn(C)n3)c3c(N)ncnc32)[C@H](O)[C@@H]1O [Compound I-3] | – | – | ≥ 1 | ≥ 1
Nc1ncnc2c1ccn2[C@@H]1O[C@H](C(=O)NCC2CCN(CC(F)F)CC2)[C@@H](O)[C@H]1O [Compound I-28] | – | – | ≥ 1 | ≥ 1
Nc1ncnc2c1c(-n1cccn1)cn2[C@H]1C[C@H](O)[C@@H](C(=O)Nc2ccc3ccc(N4CCC4)nc3c2)O1 [Compound I-13] | – | – | < 0.01 | ≥ 1
CN1CCC(CNC(=O)[C@H]2O[C@@H](n3cc(-c4ccn(C)n4)c4c(N)ncnc43)[C@H](O)[C@@H]2O)CC1 [Compound I-24] | – | – | 0.1 to 1 | 0.01 to 0.1
CNc1ccc2ccc(N(CC[C@H](N)C(=O)O)C(=O)[C@H]3O[C@@H](n4cc(-c5ccn(C)n5)c5c(N)ncnc54)[C@H](O)[C@@H]3O)cc2n1 [Compound I-38, (2S)-2-amino-4-{1-[(2S,3S,4R,5R)-5-[4-amino-5-(1-methyl-1H-pyrazol-3-yl)-7H-pyrrolo[2,3-d]pyrimidin-7-yl]-3,4-dihydroxyoxolan-2-yl]-N-[2-(methylamino)quinolin-7-yl]formamido}butanoic acid] | < 0.01 | 0.1 to 1 | – | –
CN1CCC[C@H](NC(=O)[C@H]2O[C@@H](n3cc(-c4ccn(C)n4)c4c(N)ncnc43)[C@H](O)[C@@H]2O)C1 [Compound I-230] | ≥ 1 | 0.01 to 0.1 | – | –
Nc1ccnc(NC(=O)[C@H]2O[C@@H](n3cc(-n4cccn4)c4c(N)ncnc43)C[C@@H]2O)c1 [Compound I-18] | – | – | 0.01 to 0.1 | ≥ 1
Cn1ccc(-c2cn([C@@H]3O[C@H](C(=O)NC4CCn5ccnc5C4)[C@@H](O)[C@H]3O)c3ncnc(N)c23)n1 (stereo partly shown) [Compound I-207] | 0.1 to 1 | 0.1 to 1 | – | –
Cn1ccc(-c2cn([C@@H]3O[C@H](C(=O)NC4CCN(c5ccccc5)CC4)[C@@H](O)[C@H]3O)c3ncnc(N)c23)n1 [Compound I-221] | 0.1 to 1 | 0.1 to 1 | – | –
CN1CCC(NC(=O)[C@H]2C[C@@H](n3cc(-c4ccn(C)n4)c4c(N)ncnc43)C[C@@H]2O)CC1 [Compound I-55, (1S,2S,4R)-4-(4-amino-5-(1-methyl-1H-pyrazol-3-yl)-7H-pyrrolo[2,3-d]pyrimidin-7-yl)-2-hydroxy-N-(1-methylpiperidin-4-yl)cyclopentane-1-carboxamide] | ≥ 1 | ≥ 1 | – | –
CN1CCC(N(CC2CN(C)C2)C(=O)[C@H]2O[C@@H](n3cc(-c4ccn(C)n4)c4c(N)ncnc43)[C@H](O)[C@@H]2O)CC1 [Compound I-47] | ≥ 1 | 0.01 to 0.1 | – | –
Cn1ccc(-c2cn([C@@H]3O[C@H](C(=O)NC4CCS(=O)(=O)C4)[C@@H](O)[C@H]3O)c3ncnc(N)c23)n1 (stereo partly shown) [Compound I-213] | ≥ 1 | ≥ 1 | – | –
CN1CCC(NC(=O)[C@H]2O[C@@H](n3ccc4c(N)ncnc43)[C@H](O)[C@@H]2O)CC1 [Compound I-27] | – | – | ≥ 1 | 0.1 to 1
Cn1ccc(-c2cn([C@@H]3O[C@H](C(=O)Nc4ccc(OCCN5CCOCC5)cc4)[C@@H](O)[C@H]3O)c3ncnc(N)c23)n1 [Compound I-139] | 0.1 to 1 | – | – | –
Cn1ccc(-c2cn([C@@H]3O[C@H](C(=O)NCCc4ccc(-c5ccccc5)cc4)[C@@H](O)[C@H]3O)c3ncnc(N)c23)n1 [Compound I-116] | 0.1 to 1 | – | – | –
Cn1ccc(-c2cn([C@@H]3O[C@H](C(=O)NCCc4ccc(C(F)(F)F)cc4)[C@@H](O)[C@H]3O)c3ncnc(N)c23)n1 [Compound I-108] | 0.1 to 1 | – | – | –
Cn1ccc(-c2cn([C@@H]3O[C@H](C(=O)NCc4ccc(OC(F)(F)F)cc4)[C@@H](O)[C@H]3O)c3ncnc(N)c23)n1 [Compound I-84] | ≥ 1 | – | – | –
